The results in this text go back to US9505728B2, “Triazolone compounds and uses thereof” (INCEPTION 2, INC., priority 2012, dated 2016).

The target of this assay is T1, Human PPARα (Homo sapiens, UniProt Q07869).
T1 construct: host or cells: proprietary non-human mammalian cells
T1 sequence (Q07869 1-468): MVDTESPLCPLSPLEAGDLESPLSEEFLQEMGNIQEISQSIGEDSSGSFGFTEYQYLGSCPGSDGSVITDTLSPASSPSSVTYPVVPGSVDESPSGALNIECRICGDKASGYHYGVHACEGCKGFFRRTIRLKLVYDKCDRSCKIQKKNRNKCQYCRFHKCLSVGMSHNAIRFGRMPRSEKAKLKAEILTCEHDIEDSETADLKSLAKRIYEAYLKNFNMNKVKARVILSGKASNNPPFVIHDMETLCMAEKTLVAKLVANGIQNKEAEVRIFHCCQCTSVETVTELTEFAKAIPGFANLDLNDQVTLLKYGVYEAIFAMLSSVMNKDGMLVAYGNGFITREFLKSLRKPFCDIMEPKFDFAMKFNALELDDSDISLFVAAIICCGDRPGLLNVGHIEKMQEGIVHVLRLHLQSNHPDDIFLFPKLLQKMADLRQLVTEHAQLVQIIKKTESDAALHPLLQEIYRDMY
Put plainly: Human PPARα Reporter Assay (luciferase). It counts as cell-based. The conditions noted are these: human PPARα reporter cells, overnight incubation, antagonism; read-out: Luciferase IC50. The method, boiled down: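 Agonist or antagonist activity read as luciferase light from engineered reporter cells carrying human PPARα and a responsive reporter gene. Cells got compound immediately on dispensing, incubated overnight, then treatment media swapped for luciferase detection reagent.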
(A reporter such as luciferase makes a cellular process visible.)
In general, IC50 refers to the concentration at which inhibition is half-maximal. Turning to `C=CCn1c(CCCc2ccc(-c3ccc(OC)c(CC(=O)O)c3)cc2)nn(Cc2ccc(C(C)(C)C)cc2)c1=O` [Example 76, 2-(4′-(3-(4-Allyl-1-(4-(tert-butyl)benzyl)-5-oxo-4,5-dihydro-1H-1,2,4-triazol-3-yl)propyl)-4-methoxy-[1,1′-biphenyl]-3-yl)acetic acid], the IC50 came to 261 nM.

Consider `CCn1c(CCCc2ccc(-c3ccc(NS(=O)(=O)c4ccc(Oc5ccc(C(F)(F)F)cn5)cc4)cn3)cc2)nn(Cc2ccc(C(C)(C)C)cc2)c1=O` [Example 77, 1-{[4-(tert-Butyl)phenyl]methyl}-4-ethyl-3-[3-(4-{5-[({4-[5-(trifluoromethyl)(2-pyridyloxy)]phenyl}sulfonyl)amino](2-pyridyl)}phenyl)propyl]-1,2,4-triazolin-5-one], for which the IC50 was 703 nM.

In the case of `CCn1c(CCCc2ccc(-c3cccc(NS(=O)(=O)Cc4ccccc4)n3)cc2)nn(Cc2ccc(C(C)(C)C)cc2)c1=O` [Example 78, 1-{[4-(tert-Butyl)phenyl]methyl}-4-ethyl-3-{3-[4-(6-{[benzylsulfonyl]amino}(2-pyridyl))phenyl]propyl}-1,2,4-triazolin-5-one], the IC50 amounted to 37 nM.

As for `CCn1c(CCCc2ccc(-c3ccc(NS(=O)(=O)Cc4ccccc4)cn3)cc2)nn(Cc2ccc(C(C)(C)C)cc2)c1=O` [Example 79, 1-{[4-(tert-Butyl)phenyl]methyl}-4-ethyl-3-{3-[4-(5-{[benzylsulfonyl]amino}(2-pyridyl))phenyl]propyl}-1,2,4-triazolin-5-one], the IC50 was determined as 263 nM.

With `CCCn1c(CCCc2ccc(-c3ccc(OC)c(CC(=O)O)c3)cc2)nn(Cc2ccc(C(C)(C)C)cc2)c1=O` [Example 80, 2-(4′-(3-(1-(4-(tert-Butyl)benzyl)-5-oxo-4-propyl-4,5-dihydro-1H-1,2,4-triazol-3-yl)propyl)-4-methoxy-[1,1′-biphenyl]-3-yl)acetic acid], the IC50 was found to be 22 nM.

As for `CCn1c(CCCc2ccc(-c3nccc(NS(=O)(=O)c4ccccc4)n3)cc2)nn(Cc2ccc(C(C)(C)C)cc2)c1=O` [Example 81, N-(2-(4-(3-(1-(4-(tert-Butyl)benzyl)-4-ethyl-5-oxo-4,5-dihydro-1H-1,2,4-triazol-3-yl)propyl)phenyl)pyrimidin-4-yl)benzenesulfonamide], the IC50 amounted to 127 nM.

`CCn1c(CCCc2ccc(-c3cccc(NS(=O)(=O)c4ccc(C(F)(F)F)cc4)n3)cc2)nn(Cc2ccc(C(C)(C)C)cc2)c1=O` [Example 82, 1-{[4-(tert-Butyl)phenyl]methyl}-4-ethyl-3-(3-{4-[6-({[4-(trifluoromethyl)phenyl]sulfonyl}amino)(2-pyridyl)]phenyl}propyl)-1,2,4-triazolin-5-one]: the IC50 was 181 nM.

For `CCn1c(CCCc2ccc(-c3cccc(NS(=O)(=O)c4ccc(Cl)cc4)n3)cc2)nn(Cc2ccc(C(C)(C)C)cc2)c1=O` [Example 83, 1-{[4-(tert-Butyl)phenyl]methyl}-3-{3-[4-(6-{[(4-chlorophenyl)sulfonyl]amino}(2-pyridyl))phenyl]propyl}-4-ethyl-1,2,4-triazolin-5-one], the IC50 is 60 nM.

Consider `CCn1c(CCCc2ccc(-c3cccc(NS(=O)(=O)c4ccc(OC)cc4)n3)cc2)nn(Cc2ccc(C(C)(C)C)cc2)c1=O` [Example 84, 1-{[4-(tert-Butyl)phenyl]methyl}-4-ethyl-3-{3-[4-(6-{[(4-methoxyphenyl)sulfonyl]amino}(2-pyridyl))phenyl]propyl}-1,2,4-triazolin-5-one], for which the IC50 was found to be 208 nM.

As to `CCn1c(CCCc2ccc(-c3cccc(CC(=O)O)c3)cc2)nn(Cc2ccc(C(C)(C)C)c(C3CC3)c2)c1=O` [Example 85, 2-(4′-(3-(1-(3-Cyclopropyl-4-(tert-butyl)benzyl)-4-ethyl-5-oxo-4,5-dihydro-1H-1,2,4-triazol-3-yl)propyl)-[1,1′-biphenyl]-3-yl)acetic acid], the IC50 is 662 nM.

Turning to `CCn1c(CCCc2ccc(-c3ccc(NS(=O)(=O)c4ccc(C(F)(F)F)cc4)cn3)cc2)nn(Cc2ccc(C(C)(C)C)cc2)c1=O` [Example 86, 1-{[4-(tert-Butyl)phenyl]methyl}-4-ethyl-3-(3-{4-[5-({[4-(trifluoromethyl)phenyl]sulfonyl}amino)(2-pyridyl)]phenyl}propyl)-1,2,4-triazolin-5-one], the IC50 is 971 nM.

Consider `CCn1c(CCCc2ccc(-c3ccc(OC)c(NS(=O)(=O)Cc4ccccc4)n3)cc2)nn(Cc2ccc(C(C)(C)C)cc2)c1=O` [Example 87, 1-{[4-(tert-Butyl)phenyl]methyl}-4-ethyl-3-{3-[4-(5-methoxy-6-{[benzylsulfonyl]amino}(2-pyridyl))phenyl]propyl}-1,2,4-triazolin-5-one], for which the IC50 stood at 10 nM.

With `CCn1c(CCCc2ccc(-c3ccc(OC)c(NS(=O)(=O)c4ccc(C(F)(F)F)cc4)n3)cc2)nn(Cc2ccc(C(C)(C)C)cc2)c1=O` [Example 88, 1-{[4-(tert-Butyl)phenyl]methyl}-4-ethyl-3-(3-{4-[5-methoxy-6-({[4-(trifluoromethyl)phenyl]sulfonyl}amino)(2-pyridyl)]phenyl}propyl)-1,2,4-triazolin-5-one], the IC50 was determined as 24 nM.

As to `CCn1c(CCCc2ccc(-c3ccc4occ(C(=O)O)c4c3)cc2)nn(Cc2ccc(C(C)(C)C)cc2)c1=O` [Example 89, 5-(4-(3-(1-(4-(tert-Butyl)benzyl)-4-ethyl-5-oxo-4,5-dihydro-1H-1,2,4-triazol-3-yl)propyl)phenyl)benzofuran-3-carboxylic acid], the IC50 came out at 251 nM.

As for `CCn1c(CCCc2ccc(-c3ccc(NS(=O)(=O)c4ccc(Cl)cc4)cn3)cc2)nn(Cc2ccc(C(C)(C)C)cc2)c1=O` [Example 90, 1-{[4-(tert-Butyl)phenyl]methyl}-3-{3-[4-(5-{[(4-chlorophenyl)sulfonyl]amino}(2-pyridyl))phenyl]propyl}-4-ethyl-1,2,4-triazolin-5-one], the IC50 stood at 487 nM.

With `CCn1c(CCCc2ccc(-c3ccc(NS(=O)(=O)c4ccc(OC)cc4)cn3)cc2)nn(Cc2ccc(C(C)(C)C)cc2)c1=O` [Example 91, 1-{[4-(tert-Butyl)phenyl]methyl}-4-ethyl-3-{3-[4-(5-{[(4-methoxyphenyl)sulfonyl]amino}(2-pyridyl))phenyl]propyl}-1,2,4-triazolin-5-one], the IC50 amounted to 136 nM.

Regarding `CCn1c(CCCc2ccc(-c3ccc(OC)c(NS(=O)(=O)c4ccc(Cl)cc4)n3)cc2)nn(Cc2ccc(C(C)(C)C)cc2)c1=O` [Example 92, 1-{[4-(tert-Butyl)phenyl]methyl}-3-{3-[4-(6-{[(4-chlorophenyl)sulfonyl]amino}-5-methoxy(2-pyridyl))phenyl]propyl}-4-ethyl-1,2,4-triazolin-5-one], the IC50 came to 5 nM.

`CCn1c(CCCc2ccc(-c3ccc(OC)c(NS(=O)(=O)c4ccc(OC)cc4)n3)cc2)nn(Cc2ccc(C(C)(C)C)cc2)c1=O` [Example 93, 1-{[4-(tert-Butyl)phenyl]methyl}-4-ethyl-3-{3-[4-(5-methoxy-6-{[(4-methoxyphenyl)sulfonyl]amino}(2-pyridyl))phenyl]propyl}-1,2,4-triazolin-5-one]: the IC50 turned out to be 3 nM.

In the case of `CCCOc1ccc(-c2ccc(CCCc3nn(Cc4ccc(C(C)(C)C)cc4)c(=O)n3CC)cc2)cc1CC(=O)O` [Example 94, 2-(4′-(3-(1-(4-(tert-Butyl)benzyl)-4-ethyl-5-oxo-4,5-dihydro-1H-1,2,4-triazol-3-yl)propyl)-4-propoxy-[1,1′-biphenyl]-3-yl)acetic acid], the IC50 came out at 16 nM.

With `CCOc1ccc(-c2ccc(CCCc3nn(Cc4ccc(C(C)(C)C)cc4)c(=O)n3C)cc2)cc1CC(=O)O` [Example 95, 2-(4′-(3-(1-(4-(tert-Butyl)benzyl)-4-methyl-5-oxo-4,5-dihydro-1H-1,2,4-triazol-3-yl)propyl)-4-ethoxy-[1,1′-biphenyl]-3-yl)acetic acid], the IC50 amounted to 15 nM.

As to `CCn1c(CCCc2ccc(-c3cccc(NC(=O)c4ccccc4)n3)cc2)nn(Cc2ccc(C(C)(C)C)cc2)c1=O` [Example 97, N-(6-{4-[3-(1-{[4-(tert-Butyl)phenyl]methyl}-4-ethyl-5-oxo(1,2,4-triazolin-3-yl))propyl]phenyl}(2-pyridyl))benzamide], the IC50 came out at 745 nM.

Regarding `CCn1c(CCCc2ccc(-c3ccc(NS(=O)(=O)c4ccccc4)c(OC)n3)cc2)nn(Cc2ccc(C(C)(C)C)cc2)c1=O` [Example 98, 1-{[4-(tert-Butyl)phenyl]methyl}-4-ethyl-3-[3-(4-{6-methoxy-5-[(phenylsulfonyl)amino](2-pyridyl)}phenyl)propyl]-1,2,4-triazolin-5-one], the IC50 turned out to be 264 nM.

Turning to `CCn1c(CCCc2ccc(-c3ccc(S(=O)(=O)NCc4ccccc4)cc3)cc2)nn(Cc2ccc(C(C)(C)C)cc2)c1=O` [Example 99, N-benzyl-4′-(3-(1-(4-(tert-butyl)benzyl)-4-ethyl-5-oxo-4,5-dihydro-1H-1,2,4-triazol-3-yl)propyl)-[1,1′-biphenyl]-4-sulfonamide], the IC50 was 524 nM.

As to `CCCC(=O)Nc1cccc(-c2ccc(CCCc3nn(Cc4ccc(C(C)(C)C)cc4)c(=O)n3CC)cc2)n1` [Example 100, N-(6-{4-[3-(1-{[4-(tert-Butyl)phenyl]methyl}-4-ethyl-5-oxo-1,2,4-triazolin-3-yl)propyl]phenyl}-2-pyridyl)butanamide], the IC50 came out at 712 nM.
